In ChEMBL document CHEMBL3627640 (Bioorg Med Chem, 2015) one finds IC50 data, which are given here for 5 molecules.

The experiment deals with T1, Mitogen-activated protein kinase kinase kinase 7 (Homo sapiens, UniProt O43318).
T1 sequence (O43318 whole entry): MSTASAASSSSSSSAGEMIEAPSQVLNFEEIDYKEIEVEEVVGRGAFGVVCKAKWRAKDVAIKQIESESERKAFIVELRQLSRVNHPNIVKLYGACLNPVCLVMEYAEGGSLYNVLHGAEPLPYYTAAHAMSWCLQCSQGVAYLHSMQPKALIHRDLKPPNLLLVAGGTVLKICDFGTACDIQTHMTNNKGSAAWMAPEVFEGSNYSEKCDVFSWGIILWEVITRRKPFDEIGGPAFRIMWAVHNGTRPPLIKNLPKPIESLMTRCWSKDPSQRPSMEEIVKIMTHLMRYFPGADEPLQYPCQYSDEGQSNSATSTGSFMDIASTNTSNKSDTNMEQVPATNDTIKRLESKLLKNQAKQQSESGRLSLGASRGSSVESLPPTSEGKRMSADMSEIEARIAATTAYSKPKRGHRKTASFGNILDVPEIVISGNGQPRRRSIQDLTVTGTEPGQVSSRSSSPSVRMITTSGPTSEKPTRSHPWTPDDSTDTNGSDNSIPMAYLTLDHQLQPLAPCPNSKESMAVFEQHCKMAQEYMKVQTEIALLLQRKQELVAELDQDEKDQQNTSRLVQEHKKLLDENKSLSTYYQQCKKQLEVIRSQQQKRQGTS
Briefly: Inhibition of TAK1 (unknown origin).
Take `COc1cc(O)c2c(c1)/C=C/C[C@@H]1OC(CC(=O)[C@H]1O)C[C@H](C)OC2=O`: the IC50 was above 30 µM.
Then `C/C=C/C=C\C(=O)[C@@H](O)[C@@H](O)C/C=C/c1cc(OC)cc(OC)c1C(=O)OC`, with above 30 µM; and `COc1cc(O)c2c(c1)/C=C/C[C@H](O)[C@H](O)C(=O)CCC[C@H](C)OC2=O`, with 2.6 µM; and `COc1cc(O)c2c(c1)[C@H]1O[C@@H]1C[C@H](O)[C@H](O)C(=O)CCC[C@H](C)OC2=O`, with above 30 µM.
Then `COc1cc(O)cc2c1C(=O)O[C@@H](C)CCCCC/C=C/C(=O)C2`, with above 30 µM.

For orientation: IC50 means the concentration that inhibits the measured activity by half. Read a high IC50 as weaker potency.
